One experiment deals with cytokine-stimulated human umbilical vein endothelial cells. Put plainly: Cell Adhesion Assay: adherence of fluorescently-labelled leukocytes to endothelial cell monolayers. The class given is cell-based. The following applies: Homo sapiens; inhibition of cytokine-stimulated adhesion minus basal adhesion; calcein-AM labelled leukocytes on HUVEC monolayers. The protocol:
The antiadhesion activity of compounds of the invention was determined using a modification of the previously described method, Jurgensen, C. H. et. al., J. Immunol. 144: 653-661. The adhesiveness of cytokine-stimulated human umbilical vein endothelial cells was assessed by quantitating the adherence of fluorescently-labelled (calcein-AM, Molecular Probes, Eugene, Oreg.) leukocytes to endothelial cell monolayers. Activity was determined by calculating inhibition of cytokine-stimulated adhesion minus the basal adhesion (unstimulated).
Consider `COCCOCCOCCOCCOCCOCCOCCOCCOCCOCc1cccc(-c2nc3c([nH]2)c(=O)n(CC2CCCCC2)c(=O)n3CC2CCCCC2)c1` [Example 110, 1,3-Bis(cyclohexylmethyl)-8-[3-(2,5,8,11,14,17,20,23,26,29-decaoxatriacont-1-yl)phenyl]-3,7-dihydro-1H-purine-2,6-dione], for which the IC50 – broadly, the concentration that inhibits the measured activity by half – was 29 ± 11 nM.

Take `COCCOCCOCCOCCOCCOCCOCCOCCOCCOCc1ccc(-c2nc3c([nH]2)c(=O)n(CC2CCCCC2)c(=O)n3CC2CCCCC2)cc1` [Example 96, 1,3-Bis(cyclohexylmethyl)-8-[4-(2,5,8,11,14,17,20,23,26,29-decaoxatriacont-1-yl)phenyl]-3,7-dihydro-1H-purine-2,6-dione]: the IC50 is 49 ± 16 nM.

The same experiment, now with this note: inhibition of cytokine-stimulated adhesion minus basal adhesion; calcein-AM labelled leukocytes on HUVEC monolayers.
With `COCCOCCOCCOCCOCCOCCOCCOCCOCCNC(=O)/C=C/c1ccc(-c2nc3c(c(=O)n(CC4CCCCC4)c(=O)n3CC3CCCCC3)n2Cc2ccccc2)cc1` [Example 92, (E)-4-(1,3-Bis(cyclohexylmethyl)-2,3,6,7-tetrahydro-2,6-dioxo-7-benzyl-1H-purin-8-yl)cinnamic Acid Nonaethylene Glycol Methyl Ether Amide], the IC50 was 23 ± 12 nM.

As for `COCCOCCOCCOCCOCCOCCOCCOCCOCCN(C)C(=O)c1ccc(-c2nc3c(=O)n(CC4CCCCC4)c(=O)n(CC4CCCCC4)c3[nH]2)cc1` [Example 76, 4-(1,3-Bis(cyclohexylmethyl)-1,2,3,6-tetrahydro-2,6-dioxo-9H-purin-8-yl) benzoic Acid-N-methyl-Nonaethylene Glycol Methyl Ether Amide], the IC50 is 350 ± 130 nM.

Turning to `CCCn1c(=O)c2nc(-c3cccc(/C=C/C(=O)OCCOCCOCCOCCOCCOCCOCCOCCOCCOC)c3)[nH]c2n(Cc2ccccc2)c1=O` [Example 39, (E)-3-((1-propyl-3-benzyl)-1,2,3,6-tetrahydro-2,6-dioxo-9H-purin-8-yl)cinnamic Acid Nonaethylene Glycol Methyl Ether Ester], the concentration for half-maximal inhibition (IC50) is 130 ± 80 nM.

As to `C#CCn1c(-c2ccc(/C=C/C(=O)OCCOCCOCCOCCOCCOCCOCCOCCOCCOC)cc2)nc2c1c(=O)n(CC1CCCCC1)c(=O)n2CC1CCCCC1` [Example 80, (E)-4-(1,3-Bis(cyclohexylmethyl)-2,3,6,7-tetrahydro-2,6-dioxo-7-(2-propynyl)-1H-purin-8-yl)cinnamic Acid Nonaethylene Glycol Methyl Ether Ester], the 50% inhibitory concentration (IC50) is 10 ± 4 nM.

As for `COCCOCCOCCOCCOCCOCCOCCOCCOCCOC(=O)/C=C/c1ccc(-c2nc3c(c(=O)n(CC4CCCCC4)c(=O)n3CC3CCCCC3)n2CN2CCOCC2)cc1` [Example 82, (E)-4-(1,3-Bis(cyclohexylmethyl)-2,3,6,7-tetrahydro-2,6-dioxo-7-(4-morpholinylmethyl)-1H-purin-8-yl)cinnamic Acid Nonaethylene Glycol Methyl Ether Ester], the IC50 was 19 ± 16 nM.

With `COCCOCCOCCOCCOCCOCCOCCOCCOCCOC(=O)/C=C/c1ccc(-c2nc3c(=O)n(CC(C)C)c(=O)n(CC(C)C)c3[nH]2)cc1` [Example 43, (E)-4-(1,3-bis(2-methylpropyl)-1,2,3,6-tetrahydro-2,6-dioxo-9H-purin-8-yl)cinnamic Acid Nonaethylene Glycol Methyl Ether Ester], the IC50 is 7.1 ± 2 nM.

As to `CCCCCCCCCCCCOCCOCCOCCOCCOCCOCCOC(=O)/C=C/c1ccc(-c2nc3c(=O)n(CC4CCCCC4)c(=O)n(CC4CCCCC4)c3[nH]2)cc1` [Example 59, (E)-4-(1,3-bis(cyclohexylmethyl)-1,2,3,6-tetrahydro-2,6-dioxo-9H-purin-8-yl)cinnamic Acid Hexaethylene Glycol dodecyl Ether Ester], the IC50 is 57 ± 24 nM.

`COCCOCCOCCOCCOCCOCCOCCOCCOCCNCc1ccc(-c2nc3c(=O)n(CC4CCCCC4)c(=O)n(CC4CCCCC4)c3[nH]2)cc1` [Example 108, 4-[1,3-Bis(cyclohexylmethyl)-1,2,3,6-tetrahydro-2,6-dioxo-9H-purin-8-yl]benzylamine N-Nonaethylene Glycol Methyl Ether]: the IC50 was 300 ± 82 nM.

The values are drawn from patent US6608069B1, “Phenyl xanthine derivatives” (SmithKline Beecham Corporation, priority 1998, dated 2003).
